The values below come from ChEMBL document CHEMBL3714729, “Heterocyclic compounds for the inhibition of pask” (2012).

The structures appear in SMILES notation.

For assay [1], the target named is T1, PAS domain-containing serine/threonine-protein kinase (Homo sapiens, UniProt Q96RG2). The assay can be described thus: Inhibition of purified full-length human PASK expressed in insect cells using MBP protein substrate incubated for 10 mins before ATP addition and measured after 1 hr by kinase-Glo luminescent kinase assay. (In general: Kinase-Glo measures the ATP left after a reaction by luminescence.)

The target of assay [2] is T1, PAS domain-containing serine/threonine-protein kinase. The experiment in a line: Inhibition of purified human PASK kinase domain expressed in insect cells using MBP protein substrate incubated for 10 mins before ATP addition and measured after 1 hr by kinase-Glo luminescent kinase assay.
Assay [3] concerns the target Casein kinase II subunit alpha' (Homo sapiens, UniProt P19784). The assay can be described thus: Inhibition of GST-tagged full-length purified human CK2a2 using RRRDDDSDDD substrate incubated for 120 mins in presence of [33P]ATP by scintillation counting based biochemical assay.
The target in assay [4] is T1, PAS domain-containing serine/threonine-protein kinase. The assay can be described thus: Inhibition of N-terminal GST-tagged human recombinant PASK kinase domain (879 to 1323 residues) expressed in insect cells using MBP protein substrate incubated for 120 mins in presence of [33P]ATP by scintillation counting based radiochemical assay.
For assay [5] the target is unchanged. The experiment in a line: Inhibition of human recombinant PASK using Ulight-peptide substrate incubated for 2 hrs by TR-FRET assay. For orientation: Time-resolved FRET reads energy transfer from a long-lived donor to a nearby acceptor.

Sequence of Casein kinase II subunit alpha' (P19784 whole entry, the tested form may be a part): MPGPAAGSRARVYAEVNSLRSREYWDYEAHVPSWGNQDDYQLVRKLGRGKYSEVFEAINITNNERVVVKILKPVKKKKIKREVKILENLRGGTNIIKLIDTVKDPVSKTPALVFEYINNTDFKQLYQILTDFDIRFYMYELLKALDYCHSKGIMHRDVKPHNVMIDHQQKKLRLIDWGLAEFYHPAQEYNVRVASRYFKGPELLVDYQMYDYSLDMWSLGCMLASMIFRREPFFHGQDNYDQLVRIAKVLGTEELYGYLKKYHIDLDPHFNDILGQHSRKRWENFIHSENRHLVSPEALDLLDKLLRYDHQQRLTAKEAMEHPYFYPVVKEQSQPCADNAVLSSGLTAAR
T1 sequence (Q96RG2 whole entry, the tested form may be a part): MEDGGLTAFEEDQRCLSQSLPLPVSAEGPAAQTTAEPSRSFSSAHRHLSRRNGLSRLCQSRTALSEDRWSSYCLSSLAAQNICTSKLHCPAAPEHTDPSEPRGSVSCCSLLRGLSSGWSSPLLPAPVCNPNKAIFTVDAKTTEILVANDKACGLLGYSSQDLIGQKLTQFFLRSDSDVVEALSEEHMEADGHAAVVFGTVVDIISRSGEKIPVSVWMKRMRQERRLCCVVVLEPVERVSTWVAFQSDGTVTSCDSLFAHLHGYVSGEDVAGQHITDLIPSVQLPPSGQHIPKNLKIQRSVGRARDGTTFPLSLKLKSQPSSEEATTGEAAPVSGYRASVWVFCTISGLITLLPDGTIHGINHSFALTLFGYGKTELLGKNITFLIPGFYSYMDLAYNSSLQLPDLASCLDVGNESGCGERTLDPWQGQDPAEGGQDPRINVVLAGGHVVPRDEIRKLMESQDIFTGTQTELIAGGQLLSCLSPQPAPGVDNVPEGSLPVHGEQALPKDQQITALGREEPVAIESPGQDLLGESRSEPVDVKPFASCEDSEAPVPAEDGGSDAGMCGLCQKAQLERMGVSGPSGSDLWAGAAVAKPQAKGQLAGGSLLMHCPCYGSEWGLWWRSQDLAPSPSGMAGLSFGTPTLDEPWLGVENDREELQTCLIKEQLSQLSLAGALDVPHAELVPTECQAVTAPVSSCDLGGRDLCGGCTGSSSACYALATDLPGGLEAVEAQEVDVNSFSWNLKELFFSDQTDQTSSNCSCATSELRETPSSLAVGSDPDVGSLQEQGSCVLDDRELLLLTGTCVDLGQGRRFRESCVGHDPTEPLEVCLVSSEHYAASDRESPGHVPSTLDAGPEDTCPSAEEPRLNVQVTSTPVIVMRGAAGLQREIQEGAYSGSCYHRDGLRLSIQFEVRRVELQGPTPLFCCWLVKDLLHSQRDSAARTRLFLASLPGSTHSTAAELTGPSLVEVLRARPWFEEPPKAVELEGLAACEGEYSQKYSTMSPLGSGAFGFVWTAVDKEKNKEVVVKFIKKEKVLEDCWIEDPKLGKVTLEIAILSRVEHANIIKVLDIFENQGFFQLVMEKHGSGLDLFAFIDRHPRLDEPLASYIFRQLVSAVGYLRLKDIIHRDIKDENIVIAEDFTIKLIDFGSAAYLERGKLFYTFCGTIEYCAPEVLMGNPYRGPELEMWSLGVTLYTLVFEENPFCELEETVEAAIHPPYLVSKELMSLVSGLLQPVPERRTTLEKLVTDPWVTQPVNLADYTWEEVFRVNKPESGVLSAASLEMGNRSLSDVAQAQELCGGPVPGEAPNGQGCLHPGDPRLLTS

Turning to `O=c1c2c([nH]c3c(-c4ccccc4)c(-c4ccccc4)nn13)CCC2`, the IC50 (as a rule, the midpoint of a concentration-inhibition curve) in assay [1] was at least 10 µM.
Regarding `COc1ccc(-c2nn3c(=O)cc(C(C)C)[nH]c3c2-c2ccccc2)cc1`, the IC50 in assay [1] and in assay [2] was at least 10 µM throughout.
Regarding `COc1ccc(-c2c(Cc3ccccc3)nn3c(=O)cc(-c4ccccc4)[nH]c23)cc1`, the IC50 in assay [1] was at least 10 µM.
Consider `Cc1nn2c(=O)cc(-c3ccccc3)[nH]c2c1-c1ccc(Cl)cc1`, for which the IC50 in assay [1] and in assay [2] was at most 10 µM throughout.
Regarding `Cc1cc(=O)n2nc(C)c(-c3ccc(Cl)cc3)c2[nH]1`, the IC50 in assay [1] and in assay [2] was at least 10 µM each time.
Take `O=c1c2c([nH]c3c(-c4ccc(Cl)cc4)c(Cc4ccccc4)nn13)CCC2`: the half-inhibitory concentration (IC50) in assay [1] and in assay [2] was at least 10 µM each time.
Regarding `O=c1cc(Cc2ccccc2)[nH]c2c(-c3ccccc3)c(-c3ccccc3)nn12`, the IC50 in assay [1] and in assay [2] was at least 10 µM each time.
On to `O=c1cc(-c2ccccc2)[nH]c2c(-c3ccc(Cl)cc3)c(Cc3ccccc3)nn12`, for which the IC50 in assay [1] and in assay [2] was at least 10 µM each time.
Take `O=c1cc(-c2ccc3c(c2)CCO3)[nH]c2c(-c3ccccn3)c(O)nn12`: the results for the IC50 in assay [3], in assay [4] and in assay [5] were at least 10 µM, at most 10 µM and at most 10 µM, respectively.
`Nc1nn2c(=O)cc(-c3ccc(F)cc3)[nH]c2c1-c1ccccn1`: the half-inhibitory concentration (IC50) in assay [3], in assay [4] and in assay [5] was at most 10 µM each time.
Turning to `O=c1cc(-c2ccc3occc3c2)[nH]c2c(-c3cccnc3)c(O)nn12`, the IC50 in assay [3], in assay [4] and in assay [5] was at most 10 µM each time.
Take `O=c1cc(-c2ccc3c(c2)OCO3)[nH]c2c(Cc3ccccc3)cnn12`: the IC50 in assay [3], in assay [4] and in assay [5] was at most 10 µM each time.
Regarding `CCCNC(=O)c1c(N)nn2c(=O)cc(-c3ccc4c(cnn4C)c3)[nH]c12`, the IC50 in assay [3], in assay [4] and in assay [5] was at most 10 µM throughout.
Regarding `O=C(NCc1ccccc1)c1cnn2c(=O)cc(-c3ccc(Cl)cc3)[nH]c12`, the IC50 in assay [3], in assay [4] and in assay [5] was at most 10 µM in each case.
For the compound `O=c1cc(-c2ccc3c(c2)OC(F)(F)O3)[nH]c2c(-c3ccccn3)cnn12`, the IC50 in assay [3], in assay [4] and in assay [5] was at most 10 µM in each case.
Take `CN(Cc1ccccc1)C(=O)c1cnn2c(=O)cc(-c3ccc4c(c3)OCCO4)[nH]c12`: the concentration for half-maximal inhibition (IC50) in assay [3], in assay [4] and in assay [5] was at most 10 µM in each case.
Consider `COc1c(-c2cc(=O)n3nc(C)c(-c4ccccn4)c3[nH]2)ccc2c1OCO2`, for which the IC50 in assay [3], in assay [4] and in assay [5] was at most 10 µM throughout.
`O=c1cc(-c2cc3ccccc3o2)[nH]c2c(-c3ccccn3)cnn12`: the concentration for half-maximal inhibition (IC50) in assay [3], in assay [4] and in assay [5] was at most 10 µM each time.
Regarding `O=c1cc(-c2ccc3occc3c2)[nH]c2c(-c3ccccc3)cnn12`, the IC50 in assay [3], in assay [4] and in assay [5] was at most 10 µM in each case.
As for `CCCNC(=O)c1cnn2c(=O)cc(-c3ccc4[nH]nnc4c3)[nH]c12`, the IC50 in assay [3], in assay [4] and in assay [5] was at most 10 µM throughout.
Turning to `CCc1nn2c(=O)cc(-c3ccc4c(c3)OCO4)[nH]c2c1-c1ccccn1`, the half-maximal inhibitory concentration (IC50) in assay [3], in assay [4] and in assay [5] was at most 10 µM each time.
As to `CCCNC(=O)c1c(O)nn2c(=O)cc(-c3ccc4c(c3)OCO4)[nH]c12`, the half-maximal inhibitory concentration (IC50) in assay [3], in assay [4] and in assay [5] was at most 10 µM each time.
Turning to `Nc1nn2c(=O)cc(-c3ccc4c(c3)OCO4)[nH]c2c1-c1ccccn1`, the half-inhibitory concentration (IC50) in assay [3], in assay [4] and in assay [5] was at most 10 µM throughout.
For `O=c1cc(-c2ccc3[nH]nnc3c2)[nH]c2c(-c3ccccn3)c(O)nn12`, the IC50 in assay [3], in assay [4] and in assay [5] was at most 10 µM throughout.
`Cc1cc(=O)n2nc(-c3ccc(Cl)cc3)cc2[nH]1` yielded an IC50 in assay [1] of at most 10 µM.
Regarding `O=c1cc(-c2ccc3[nH]ncc3c2)[nH]c2c(-c3ccccn3)cnn12`, the IC50 in assay [3], in assay [4] and in assay [5] was at most 10 µM in each case.
As to `CCCNC(=O)c1c(N)nn2c(=O)cc(-c3ccc4[nH]nc(C)c4c3)[nH]c12`, the IC50 in assay [3], in assay [4] and in assay [5] was at most 10 µM each time.
With `O=c1cc(-c2ccc3occc3c2)[nH]c2c(-c3ccccc3)c(O)nn12`, the IC50 in assay [3], in assay [4] and in assay [5] was at most 10 µM each time.
Turning to `CC(=O)Nc1nn2c(=O)cc(-c3ccc4c(c3)OCO4)[nH]c2c1-c1ccccn1`, the IC50 in assay [3], in assay [4] and in assay [5] was at most 10 µM each time.
The compound `COc1ccc(-c2c(C)nn3c(=O)cc(-c4ccccc4)[nH]c23)cc1` had an IC50 in assay [1] of at least 10 µM.
Turning to `O=c1cc(-c2ccc(F)cc2)[nH]c2c(-c3ccccn3)cnn12`, the 50% inhibitory concentration (IC50) in assay [3], in assay [4] and in assay [5] was at most 10 µM each time.
Consider `O=c1cc(-c2ccc3c(c2)CCO3)[nH]c2c(-c3ccccn3)cnn12`, for which the IC50 in assay [3], in assay [4] and in assay [5] was at most 10 µM in each case.
As for `O=c1cc(-c2ccc3c(c2)OCO3)[nH]c2c(-c3cccnc3)c(O)nn12`, the IC50 in assay [3], in assay [4] and in assay [5] was at most 10 µM each time.
On to `O=c1cc(-c2ccc(Cl)cc2)[nH]c2c(-c3ccccn3)c(O)nn12`, for which the IC50 in assay [3] was at least 10 µM; in assay [4], at most 10 µM; in assay [5], at most 10 µM.
Consider `COc1cc2[nH]nnc2cc1-c1cc(=O)n2nc(N)c(-c3ccccn3)c2[nH]1`, for which the figures for the 50% inhibitory concentration (IC50) in assay [3], in assay [4] and in assay [5] were at least 10 µM, at most 10 µM and at most 10 µM, respectively.
As for `Cc1cc(=O)n2nc(-c3cccc(Br)c3)cc2[nH]1`, in assay [1], the half-maximal inhibitory concentration (IC50) was at most 10 µM.
With `Nc1nn2c(=O)cc(-c3ccc4c(c3)OCCO4)[nH]c2c1-c1ccccc1`, the concentration for half-maximal inhibition (IC50) in assay [3], in assay [4] and in assay [5] was at most 10 µM throughout.
Consider `Nc1nn2c(=O)cc(-c3ccc4c(c3)OCCO4)[nH]c2c1-c1ccccn1`, for which the IC50 in assay [3], in assay [4] and in assay [5] was at most 10 µM throughout.
With `CCc1nn2c(=O)cc(-c3ccc4[nH]nnc4c3)[nH]c2c1-c1ccccn1`, the IC50 in assay [3], in assay [4] and in assay [5] was at most 10 µM throughout.
Turning to `COc1ccccc1-c1cc(=O)n2ncc(-c3ccccn3)c2[nH]1`, the IC50 in assay [3], in assay [4] and in assay [5] was at most 10 µM in each case.
In the case of `N#Cc1ccc(-c2cc(=O)n3ncc(-c4ccccn4)c3[nH]2)cc1`, the concentration for half-maximal inhibition (IC50) in assay [3] is at least 10 µM; in assay [4] it was at most 10 µM; in assay [5] it was at most 10 µM.
Consider `O=c1cc(-c2ccc3c(c2)OCCO3)[nH]c2c(-c3ccccc3)c(C(F)(F)F)nn12`, for which the half-inhibitory concentration (IC50) in assay [3], in assay [4] and in assay [5] was at most 10 µM in each case.
Consider `O=c1cc(-c2ccc3c(c2)CCO3)[nH]c2c(-c3ccccc3)cnn12`, for which the IC50 in assay [3], in assay [4] and in assay [5] was at most 10 µM in each case.
With `CC(=O)Nc1nn2c(=O)cc(-c3ccc4c(cnn4C)c3)[nH]c2c1-c1ccccn1`, the concentration for half-maximal inhibition (IC50) in assay [3], in assay [4] and in assay [5] was at most 10 µM throughout.
Consider `Nc1nn2c(=O)cc(-c3ccc(Cl)cc3)[nH]c2c1-c1ccccc1`, for which the IC50 in assay [3], in assay [4] and in assay [5] was at most 10 µM in each case.
In turn, `Cc1nn2c(=O)c(C#N)c(-c3ccccc3)[nH]c2c1-c1ccccc1` displayed an IC50 in assay [1] of at least 10 µM.
`O=c1cc(-c2ccc3[nH]nnc3c2)[nH]c2c(-c3ccc(Cl)cc3)cnn12`: the concentration for half-maximal inhibition (IC50) in assay [3], in assay [4] and in assay [5] was at most 10 µM in each case.
Take `COc1ccc(-c2cc(=O)n3nc(O)c(-c4ccccn4)c3[nH]2)c(OC)c1`: the results for the half-inhibitory concentration (IC50) in assay [3], in assay [4] and in assay [5] were at least 10 µM, at most 10 µM and at most 10 µM, respectively.
With `O=c1cc(-c2ccc(Cl)c(Cl)c2)[nH]c2c(-c3ccccn3)cnn12`, the IC50 in assay [3], in assay [4] and in assay [5] was at most 10 µM in each case.
For `Cc1nn2c(=O)cc(-c3ccc4c(c3)OCO4)[nH]c2c1Cc1ccccn1`, the half-inhibitory concentration (IC50) in assay [3], in assay [4] and in assay [5] was at most 10 µM throughout.
With `O=c1cc(-c2ccc(F)cc2)[nH]c2c(-c3ccccn3)c(O)nn12`, the IC50 was at least 10 µM in assay [3], at most 10 µM in assay [4] and at most 10 µM in assay [5].
In turn, `O=c1cc(-c2ccccc2)[nH]c2c(-c3ccccc3)c(Cc3ccccc3)nn12` registered a half-maximal inhibitory concentration (IC50) in assay [1] of at least 10 µM.
For `COc1cccc(-c2cnn3c(=O)cc(-c4ccc5c(c4)OCCO5)[nH]c23)c1`, the IC50 in assay [3], in assay [4] and in assay [5] was at most 10 µM throughout.
For the compound `CCCNC(=O)c1c(N)nn2c(=O)cc(-c3ccc(Cl)cc3)[nH]c12`, the half-maximal inhibitory concentration (IC50) in assay [3], in assay [4] and in assay [5] was at most 10 µM in each case.
As to `Nc1nn2c(=O)cc(-c3ccc4[nH]nnc4c3)[nH]c2c1-c1ccccc1`, the concentration for half-maximal inhibition (IC50) in assay [3], in assay [4] and in assay [5] was at most 10 µM in each case.
`CCNc1nn2c(=O)cc(-c3ccc4c(c3)OCO4)[nH]c2c1-c1ccccn1`: the IC50 in assay [3], in assay [4] and in assay [5] was at most 10 µM in each case.
